Among the data in PubChem BioAssay (NCI) are TGI values, retold here.

Structures are written as SMILES.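 Values below derive from 48-hour exposures of cells grown in 96-well plates, with endpoints linearly interpolated between the two concentrations bracketing the appropriate inhibition level. At the TGI there is no net growth.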 Some results are limits rather than exact numbers.

Holding throughout (test): NCI-60 cell line screen, 48 h
Assay [1] has as its system OVCAR-4 ovarian.
Assay [2] relates to KM12 colon.
The test system of assay [3] is SF-268 CNS.
Assay [4] has as its system SW-620 colon.
The subject of assay [5] is IGROV1 ovarian.
Assay [6] relates to OVCAR-5 ovarian.
The subject of assay [7] is NCI-H522 lung.
Assay [8] has as its system SF-295 CNS.
For assay [9], the system named is CCRF-CEM leukemia.
Assay [10] concerns MOLT-4 leukemia.
In assay [11] the test system is EKVX NSCLC.
Assay [12] deals with K-562 leukemia.
For assay [13], the system named is MDA-MB-231 breast.

On to `CO/N=C(\C(=O)N(C)n1cnnc1)c1csc(NC(c2ccccc2)(c2ccccc2)c2ccccc2)n1`, for which the TGI in [1], in assay [2], in [3], in assay [4], in assay [5] and in assay [6] was above 10 µM in each case. Further, the TGI in assay [7], in assay [8], in assay [9], in assay [10], in assay [11] and in assay [12] was above 10 µM each time.

Turning to `c1ccc([P+](Cc2ccccc2C[P+](c2ccccc2)(c2ccccc2)c2ccccc2)(c2ccccc2)c2ccccc2)cc1`, the TGI in [13], in assay [2], in assay [3], in assay [4], in [5] and in assay [6] was above 100 µM in each case. Moreover, the TGI in [7], in [8] and in assay [12] was above 100 µM each time.

On to `COc1ccc2cc(C(=O)O)ccc2c1OC`, for which the TGI in assay [13], in assay [2], in assay [3], in [4], in [5] and in assay [6] was above 100 µM in each case. Further, the TGI in assay [7], in [8], in assay [9], in assay [10] and in assay [12] was above 100 µM in each case.

As for `Nc1ccn(C2CCC(CO)O2)c(=S)n1` (centres undefined), the TGI in assay [13], in assay [2], in assay [3], in assay [4], in assay [5] and in assay [6] was above 100 µM throughout. Further, the TGI in [7], in [8], in assay [9], in assay [10], in assay [11] and in [12] was above 100 µM throughout.

`CC1Oc2c(c(=O)oc3ccccc23)[C@@]1(C)CC1C[C@H](C)C(=O)O1` (some centres undefined): the TGI is above 100 µM in assay [13]; above 100 µM in assay [2]; 42.8 µM in assay [3]; above 100 µM in assay [4]; above 100 µM in assay [5]; above 100 µM in [6]. Also, the TGI in assay [7] is 34.2 µM; in assay [8], above 100 µM; in assay [9], 32.9 µM; in assay [10], 37.2 µM; in [11] it was above 100 µM; in assay [12], 66 µM.

With `CC(C)=NNC=N/C(C#N)=C(\N)C#N`, the TGI in assay [1], in assay [3], in assay [4], in [5], in [6] and in [7] was above 100 µM throughout. The TGI in [8], in assay [9], in [10], in assay [11] and in assay [12] was above 100 µM in each case.

Take `O=C(N=Nc1cccc(Cl)c1)NNc1cccc(Cl)c1`: the TGI amounted to 52.6 µM in assay [1]; 74.6 µM in assay [13]; 73.6 µM in assay [3]; 35.5 µM in assay [4]; 43.3 µM in assay [5]; 46.5 µM in [6]. Besides, the TGI amounted to 42.6 µM in assay [7], 48.5 µM in assay [9], 42.7 µM in [10] and 39.6 µM in assay [12].

On to `N#C/C(C(=O)Nc1ccc(Cl)cc1)=C(/N)N1CCCCC1`, for which the TGI in assay [2], in assay [4], in assay [5], in assay [6], in assay [8] and in assay [9] was above 100 µM throughout. The TGI in assay [10], in assay [11] and in [12] was above 100 µM each time.

`COc1cc(C2C(C#N)=C(N)OC3=C2CCS(=O)(=O)c2ccc(C)cc23)cc(OC)c1OC` (centres undefined): the TGI in [1], in assay [13], in assay [2], in assay [3], in assay [4] and in assay [5] was above 100 µM in each case. Moreover, the TGI in assay [6], in assay [7], in assay [9] and in [12] was above 100 µM in each case.

In the case of `CC1=CC[C@@]2(CO)[C@@H]([C@@H]1C)[C@H]1CC[C@@H]3[C@@]4(C)CC[C@H](O)C(C)(C)[C@@H]4CC[C@@]3(C)[C@]1(C)C[C@@H]2O`, the TGI was above 100 µM in assay [1]; above 100 µM in [2]; above 100 µM in [3]; above 100 µM in assay [4]; 82.3 µM in assay [5]; above 100 µM in assay [6]. In addition, the TGI in assay [7] is 42.8 µM; in assay [8], 58.4 µM; in assay [9], above 100 µM; in assay [10], above 100 µM; in [11], above 100 µM; in assay [12], above 100 µM.

Consider `CCOC(=O)[C@@]12C3C=CC(CC3)[C@]1(C(=O)c1ccccc1)C(=O)C(=O)N2c1ccccc1` (some centres undefined), for which the TGI in assay [1], in [13], in assay [2], in assay [3], in assay [4] and in assay [6] was above 100 µM each time. The TGI in [7], in assay [8], in [10] and in assay [12] was above 100 µM each time.

For the compound `Oc1ccc(N=C2CCC(=C(c3ccccc3)c3ccc(Nc4ccc(O)cc4)cc3)CC2)cc1`, the TGI in [1], in [13], in assay [2], in [3], in [4] and in [6] was above 100 µM throughout. The TGI in assay [7], in assay [8], in assay [9], in [10] and in assay [12] was above 100 µM each time.
